Data reported in the NIST ThermoML archive (doi:10.1021/je201051q).

Experiment: xn = mol fraction of the nth substance listed
Details: isochoric method

C=C(F)C(F)(F)F [2,3,3,3-tetrafluoro-1-propene] + O=C=O
Details | molar volume [m3/mol]
223.07 K, 420.2 kPa, Fluid (supercritical or subcritical phases), x2 = 0.662 | 0.001227
223.08 K, 197.6 kPa, Fluid (supercritical or subcritical phases), x2 = 0.365 | 0.002253
223.28 K, 95.7 kPa, Fluid (supercritical or subcritical phases), x2 = 0.16 | 0.002938
223.62 K, 147.7 kPa, Fluid (supercritical or subcritical phases), x2 = 0.266 | 0.002569
223.63 K, 312 kPa, Fluid (supercritical or subcritical phases), x2 = 0.574 | 0.002153
224.2 K, 460.3 kPa, Fluid (supercritical or subcritical phases), x2 = 0.754 | 0.001747
224.91 K, 61.7 kPa, Fluid (supercritical or subcritical phases), x2 = 0.051 | 0.002894
225.14 K, 271.4 kPa, Fluid (supercritical or subcritical phases), x2 = 0.48 | 0.002063
232.92 K, 331.8 kPa, Fluid (supercritical or subcritical phases), x2 = 0.48 | 0.002063
232.97 K, 252.9 kPa, Fluid (supercritical or subcritical phases), x2 = 0.365 | 0.002254
232.97 K, 559 kPa, Fluid (supercritical or subcritical phases), x2 = 0.662 | 0.001227
233 K, 129.7 kPa, Fluid (supercritical or subcritical phases), x2 = 0.16 | 0.002939
233.01 K, 387.5 kPa, Fluid (supercritical or subcritical phases), x2 = 0.574 | 0.002154
233.06 K, 576 kPa, Fluid (supercritical or subcritical phases), x2 = 0.754 | 0.001747
233.09 K, 190.8 kPa, Fluid (supercritical or subcritical phases), x2 = 0.266 | 0.00257
233.25 K, 86.7 kPa, Fluid (supercritical or subcritical phases), x2 = 0.051 | 0.002895
242.68 K, 174.3 kPa, Fluid (supercritical or subcritical phases), x2 = 0.16 | 0.00294
242.84 K, 412.5 kPa, Fluid (supercritical or subcritical phases), x2 = 0.48 | 0.002064
242.95 K, 711.4 kPa, Fluid (supercritical or subcritical phases), x2 = 0.662 | 0.001228
242.99 K, 322.1 kPa, Fluid (supercritical or subcritical phases), x2 = 0.365 | 0.002255
243.03 K, 246 kPa, Fluid (supercritical or subcritical phases), x2 = 0.266 | 0.002571
243.04 K, 710.6 kPa, Fluid (supercritical or subcritical phases), x2 = 0.754 | 0.001748
243.07 K, 124.7 kPa, Fluid (supercritical or subcritical phases), x2 = 0.051 | 0.002896
243.08 K, 479.4 kPa, Fluid (supercritical or subcritical phases), x2 = 0.574 | 0.002155
252.69 K, 399.3 kPa, Fluid (supercritical or subcritical phases), x2 = 0.365 | 0.002256
252.82 K, 234.8 kPa, Fluid (supercritical or subcritical phases), x2 = 0.16 | 0.002942
252.82 K, 504.1 kPa, Fluid (supercritical or subcritical phases), x2 = 0.48 | 0.002065
252.9 K, 876.2 kPa, Fluid (supercritical or subcritical phases), x2 = 0.662 | 0.001228
252.95 K, 315.1 kPa, Fluid (supercritical or subcritical phases), x2 = 0.266 | 0.002572
252.97 K, 179 kPa, Fluid (supercritical or subcritical phases), x2 = 0.051 | 0.002897
253.03 K, 574.3 kPa, Fluid (supercritical or subcritical phases), x2 = 0.574 | 0.002156
253.04 K, 842.3 kPa, Fluid (supercritical or subcritical phases), x2 = 0.754 | 0.001749
262.58 K, 492.3 kPa, Fluid (supercritical or subcritical phases), x2 = 0.365 | 0.002257
262.8 K, 313 kPa, Fluid (supercritical or subcritical phases), x2 = 0.16 | 0.002943
262.86 K, 610.6 kPa, Fluid (supercritical or subcritical phases), x2 = 0.48 | 0.002066
262.94 K, 1044 kPa, Fluid (supercritical or subcritical phases), x2 = 0.662 | 0.001229
262.95 K, 401.7 kPa, Fluid (supercritical or subcritical phases), x2 = 0.266 | 0.002573
262.96 K, 686 kPa, Fluid (supercritical or subcritical phases), x2 = 0.574 | 0.002157
263.01 K, 980.1 kPa, Fluid (supercritical or subcritical phases), x2 = 0.754 | 0.00175
263.06 K, 253.3 kPa, Fluid (supercritical or subcritical phases), x2 = 0.051 | 0.002899
272.66 K, 609 kPa, Fluid (supercritical or subcritical phases), x2 = 0.365 | 0.002258
272.75 K, 412.9 kPa, Fluid (supercritical or subcritical phases), x2 = 0.16 | 0.002944
272.82 K, 813.7 kPa, Fluid (supercritical or subcritical phases), x2 = 0.574 | 0.002158
272.83 K, 1223.1 kPa, Fluid (supercritical or subcritical phases), x2 = 0.662 | 0.001229
272.84 K, 734.4 kPa, Fluid (supercritical or subcritical phases), x2 = 0.48 | 0.002067
272.93 K, 348.1 kPa, Fluid (supercritical or subcritical phases), x2 = 0.051 | 0.0029
272.93 K, 509.9 kPa, Fluid (supercritical or subcritical phases), x2 = 0.266 | 0.002574
272.98 K, 1122.7 kPa, Gas, x2 = 0.754 | 0.00175
282.56 K, 466.4 kPa, Fluid (supercritical or subcritical phases), x2 = 0.051 | 0.002901
282.57 K, 537.9 kPa, Fluid (supercritical or subcritical phases), x2 = 0.16 | 0.002945
282.62 K, 884.2 kPa, Fluid (supercritical or subcritical phases), x2 = 0.48 | 0.002068
282.63 K, 1179.9 kPa, Gas, x2 = 0.754 | 0.001751
282.64 K, 1417.7 kPa, Fluid (supercritical or subcritical phases), x2 = 0.662 | 0.00123
282.69 K, 751.6 kPa, Fluid (supercritical or subcritical phases), x2 = 0.365 | 0.002259
282.75 K, 641.4 kPa, Fluid (supercritical or subcritical phases), x2 = 0.266 | 0.002575
282.88 K, 940.5 kPa, Gas, x2 = 0.574 | 0.002159
292.47 K, 673.8 kPa, Gas, x2 = 0.16 | 0.002947
292.6 K, 1003.3 kPa, Gas, x2 = 0.48 | 0.002069
292.67 K, 1237.7 kPa, Gas, x2 = 0.754 | 0.001752
292.69 K, 1614 kPa, Gas, x2 = 0.662 | 0.001231
292.7 K, 623 kPa, Fluid (supercritical or subcritical phases), x2 = 0.051 | 0.002902
292.75 K, 804.6 kPa, Fluid (supercritical or subcritical phases), x2 = 0.266 | 0.002577
292.85 K, 906.8 kPa, Gas, x2 = 0.365 | 0.00226
292.91 K, 1004.6 kPa, Gas, x2 = 0.574 | 0.00216
302.61 K, 742.4 kPa, Gas, x2 = 0.16 | 0.002948
302.61 K, 1055.6 kPa, Gas, x2 = 0.48 | 0.00207
302.67 K, 1296 kPa, Gas, x2 = 0.754 | 0.001753
302.81 K, 736.5 kPa, Gas, x2 = 0.051 | 0.002904
302.86 K, 1049.3 kPa, Gas, x2 = 0.574 | 0.002161
302.88 K, 856.1 kPa, Gas, x2 = 0.266 | 0.002578
302.89 K, 1732.2 kPa, Gas, x2 = 0.662 | 0.001231
302.96 K, 976.1 kPa, Gas, x2 = 0.365 | 0.002261
303.05 K, 738 kPa, Gas, x2 = 0.051 | 0.002904
307.54 K, 758.8 kPa, Gas, x2 = 0.16 | 0.002949
312.7 K, 1352.4 kPa, Gas, x2 = 0.754 | 0.001753
312.79 K, 1094.3 kPa, Gas, x2 = 0.574 | 0.002162
312.82 K, 895.4 kPa, Gas, x2 = 0.266 | 0.002579
312.84 K, 1814.8 kPa, Gas, x2 = 0.662 | 0.001232
312.92 K, 1020.4 kPa, Gas, x2 = 0.365 | 0.002262
312.94 K, 773.7 kPa, Gas, x2 = 0.051 | 0.002905
313.12 K, 778.4 kPa, Gas, x2 = 0.16 | 0.002949
313.12 K, 1111.4 kPa, Gas, x2 = 0.48 | 0.002071
322.6 K, 1062.1 kPa, Gas, x2 = 0.365 | 0.002263
322.75 K, 808.1 kPa, Gas, x2 = 0.051 | 0.002906
323.09 K, 811.8 kPa, Gas, x2 = 0.16 | 0.002951
323.1 K, 934.8 kPa, Gas, x2 = 0.266 | 0.00258
323.1 K, 1139.4 kPa, Gas, x2 = 0.574 | 0.002163
323.1 K, 1407.6 kPa, Gas, x2 = 0.754 | 0.001754
323.1 K, 1898.7 kPa, Gas, x2 = 0.662 | 0.001232
323.11 K, 1157.2 kPa, Gas, x2 = 0.48 | 0.002071
333.06 K, 1183.4 kPa, Gas, x2 = 0.574 | 0.002164
333.07 K, 1106.6 kPa, Gas, x2 = 0.365 | 0.002264
333.08 K, 844.9 kPa, Gas, x2 = 0.16 | 0.002952
333.08 K, 972.6 kPa, Gas, x2 = 0.266 | 0.002581
333.08 K, 1202.8 kPa, Gas, x2 = 0.48 | 0.002072
333.08 K, 1460.2 kPa, Gas, x2 = 0.754 | 0.001755
333.08 K, 1979.1 kPa, Gas, x2 = 0.662 | 0.001233
333.09 K, 843.3 kPa, Gas, x2 = 0.051 | 0.002907
343.03 K, 1149.4 kPa, Gas, x2 = 0.365 | 0.002265
343.04 K, 1010.2 kPa, Gas, x2 = 0.266 | 0.002582
343.04 K, 1227 kPa, Gas, x2 = 0.574 | 0.002165
343.05 K, 877.5 kPa, Gas, x2 = 0.16 | 0.002953
343.05 K, 2058.6 kPa, Gas, x2 = 0.662 | 0.001233
343.06 K, 877.3 kPa, Gas, x2 = 0.051 | 0.002909
343.07 K, 1512.6 kPa, Gas, x2 = 0.754 | 0.001756
343.1 K, 1248 kPa, Gas, x2 = 0.48 | 0.002073
352.97 K, 1292.5 kPa, Gas, x2 = 0.48 | 0.002074
352.99 K, 909.5 kPa, Gas, x2 = 0.16 | 0.002954
352.99 K, 1191.4 kPa, Gas, x2 = 0.365 | 0.002266
352.99 K, 1269.8 kPa, Gas, x2 = 0.574 | 0.002166
352.99 K, 2136.6 kPa, Gas, x2 = 0.662 | 0.001234
353 K, 1046.2 kPa, Gas, x2 = 0.266 | 0.002583
353.02 K, 910.7 kPa, Gas, x2 = 0.051 | 0.00291
353.02 K, 1564.1 kPa, Gas, x2 = 0.754 | 0.001756
362.92 K, 943.3 kPa, Gas, x2 = 0.051 | 0.002911
362.92 K, 1082.5 kPa, Gas, x2 = 0.266 | 0.002584
362.92 K, 1232.6 kPa, Gas, x2 = 0.365 | 0.002267
362.94 K, 1311.6 kPa, Gas, x2 = 0.574 | 0.002167
362.96 K, 941.6 kPa, Gas, x2 = 0.16 | 0.002956
362.96 K, 1337.1 kPa, Gas, x2 = 0.48 | 0.002075
362.96 K, 1615.2 kPa, Gas, x2 = 0.754 | 0.001757
362.97 K, 2214.8 kPa, Gas, x2 = 0.662 | 0.001234
372.89 K, 973.3 kPa, Gas, x2 = 0.16 | 0.002957
372.89 K, 1119 kPa, Gas, x2 = 0.266 | 0.002586
372.92 K, 975.7 kPa, Gas, x2 = 0.051 | 0.002912
372.92 K, 1354.3 kPa, Gas, x2 = 0.574 | 0.002167
372.92 K, 1381.3 kPa, Gas, x2 = 0.48 | 0.002076
372.93 K, 2291.9 kPa, Gas, x2 = 0.662 | 0.001235
